We go through one molecule from publication PMC9137726, “Thioredoxin Reductase-Type Ferredoxin: NADP^+ Oxidoreductase of Rhodopseudomonas palustris: Potentiometric Characteristics and Reactions with Nonphysiological Oxidants” (Antioxidants, 2022).

In this assay the target is T1, RpFNR (R. palustris TrxR-type FNR) (Rhodopseudomonas palustris, UniProt Q6N2U4).
T1 construct: gene RPA3954; domains span residues 2-344
The assay can be described thus: steady-state spectrophotometric NADPH:juglone reductase inhibition. It counts as biochemical. Particulars: read-out: Kis.

T1 sequence (Q6N2U4 whole entry, the tested form may be a part): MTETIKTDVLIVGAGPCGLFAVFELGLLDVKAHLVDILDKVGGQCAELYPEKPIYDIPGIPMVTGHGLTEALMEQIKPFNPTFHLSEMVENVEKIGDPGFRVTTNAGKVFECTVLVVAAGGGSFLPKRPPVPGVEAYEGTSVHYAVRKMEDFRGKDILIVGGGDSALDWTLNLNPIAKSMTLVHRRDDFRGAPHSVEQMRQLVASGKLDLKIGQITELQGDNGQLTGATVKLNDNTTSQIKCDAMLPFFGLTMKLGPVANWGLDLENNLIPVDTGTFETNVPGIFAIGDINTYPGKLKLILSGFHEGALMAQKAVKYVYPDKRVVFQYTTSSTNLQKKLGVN

As for `NC(=O)c1ccc[n+]([C@@H]2O[C@H](COP(=O)(O)OP(=O)(O)OC[C@H]3O[C@@H](n4cnc5c(N)ncnc54)[C@H](OP(=O)(O)O)[C@@H]3O)[C@@H](O)[C@H]2O)c1` [NADP^+], the Ki came out at 150 ± 10 µM.
